Results on 29 compounds are retold here after patent US9688689B2, “Compounds and compositions for inducing chondrogenesis” (Novartis AG, priority 2014, dated 2017).

In this assay the test system is Primary articular chondrocytes from normal bovine knees. Nature of the assay: NO Release Assay in Bovine Chondrocytes (inhibition of cytokine induced NO release, Greiss reagent). Type of assay: cell-based. The settings on record: Bos taurus, Chondrocyte; 20 ng/ml TNFα and 10 ng/ml human oncostatin M, 48 hours; read-out: NO Inh. IC50. As to the method: The compounds of the present invention were evaluated in two functional assays to assess their chondrogenesis activities (Type II Collagen Expression) and chondrocyte protective activities (NO release assay).
The assay was described in Johnson, K., et al., (2012) Science 336, 717-721. Chondrocytes release NO during OA pathogenesis. This assay measures the inhibition of nitric oxide release by the treated compound (an indicator of chondro-protection) Primary articular chondrocytes from normal bovine knees (Animal Technologies, Tyler, Tex.) were isolated after dissection and collagenase digestion (Worthington Biochemical) of the tibial plateau and femoral condyle articular cartilage. The cells were initially plated at 80-90% confluency after isolation. Primary chondrocytes were cultured in high-glucose Dulbecco's modified Eagle's medium (DMEM) supplemented with 10% fetal bovine serum (FBS), 1% L-glutamine, 100 units/ml of penicillin, and 50 μg/ml of streptomycin (Life Technologies, Carlsbad, Calif.) and maintained at 37° C. in the presence of 5% CO2 for 7 days prior to initiation of each experiment. During the 7-day culture period, the cells adhered and established a chondrocyte-like appearance that was maintained throughout the experimental period. Functional studies on chondrocytes were performed in high-glucose DMEM with no FBS unless indicated otherwise.
After one week of culture, 8500 cells were plated per well in Greiner 384 well white clear bottom plates in growth media. Following 24 hours of culture, the media was removed and replaced with serum free DMEM containing 20 ng/ml TNFα and 10 ng/ml human oncostatin M (inflammatory mediators). […] 20 μl of the supernatant was mixed with 20 μl of the Greiss reagent (Promega # G2930) and quantitated at 540 nm. The Greiss reagent part A (1% Sulfanilamide in 5% phosphoric acid) was mixed at a 1:1 ration with Greiss reagent part B (0.1% N-1-napthylethylenediamine dihydrochloride in water) immediately prior to added to the culture supernatant.

As usually defined, the IC50 is the concentration needed to halve the response being measured.

For `O=C(Nc1ccc(Cl)c(Cl)c1)[C@@H]1[C@@H](c2cccc(C(F)(F)F)n2)[C@@H]2CC[C@H]1O2` [Compound 92], the IC50 is > 33 µM.

Take `C[C@]12CC[C@](C)(O1)[C@@H](c1ccncc1)[C@H]2C(=O)Nc1ccc(-c2ccccc2F)c(F)c1` [Compound 93]: the IC50 was > 33 µM.

On to `O=C(Nc1ccc(-c2ccccc2F)c(F)c1)[C@@H]1[C@H](c2ccnc(F)c2Cl)[C@@H]2CC[C@H]1O2` [Compound 95], for which the IC50 is 0.18 µM.

`O=C(Nc1ccc(-c2ccccc2F)c(F)c1)C1=C(c2ccnc(F)c2Cl)[C@@H]2CCC1O2` [Compound 97]: the IC50 was 22.6 µM.

Turning to `O=C(Nc1ccc(-c2ccccc2)c(Cl)c1)[C@@H]1[C@@H](c2ccncc2)[C@@H]2CC[C@H]1O2` [Compound 98], the 50% inhibitory concentration (IC50) was > 33 µM.

On to `O=C(Nc1ccc(-c2ccccc2)c(Cl)c1)[C@H]1[C@@H](c2ccncc2)[C@@H]2CC[C@H]1O2` [Compound 104], for which the IC50 is > 33 µM.

With `O=C(Nc1ccc(-c2ccccc2F)c(F)c1)C1=C(c2ccncc2F)[C@@H]2CCC1O2` [Compound 109], the IC50 is > 33 µM.

On to `O=C(Nc1ccc(-c2ccc(F)cc2F)c(F)c1)[C@@H]1[C@@H](c2ccncc2)[C@@H]2CC[C@H]1O2` [Compound 111], for which the IC50 is > 33 µM.

Take `O=C(Nc1ccc(-c2ccccc2F)c(F)c1)C1=C(c2cc(Cl)nc(Cl)c2)[C@@H]2CC[C@H]1O2` [Compound 116]: the IC50 was 0.12 µM.

Consider `O=C(Nc1ccc(Cl)c(Cl)c1)[C@@H]1[C@@H](c2ccncc2)[C@@H]2CC[C@H]1O2` [Compound 118, (1R,2R,3S,4S)—N-(3,4-dichlorophenyl)-3-(pyridin-4-yl)-7-oxabicyclo[2.2.1]heptane-2-carboxamide], for which the IC50 is > 33 µM.

For the compound `O=C(Nc1ccc(-c2ccccc2)cc1)[C@H]1[C@@H](c2cccnc2)[C@H]2CC[C@@H]1O2` [Compound 121], the IC50 is > 23 µM.

Regarding `Cn1ccc([C@@H]2[C@H](C(=O)Nc3ccc(-c4ccccc4)cc3)[C@@H]3CC[C@H]2O3)n1` [Compound 122], the IC50 is > 33 µM.

Turning to `O=C(Nc1ccc(-c2ccccc2Cl)c(F)c1)[C@H]1[C@@H](c2cccc(C(F)(F)F)n2)[C@H]2CC[C@@H]1O2` [Compound 123], the IC50 was > 11 µM.

In the case of `CCOC(=O)c1ccc(NC(=O)C2=C(c3cccc(C(F)(F)F)n3)[C@@H]3CCC2O3)cc1` [Compound 129], the IC50 is > 33 µM.

As to `O=C(Nc1ccc(Cl)c(Cl)c1)[C@@H]1[C@H](c2ccncc2)[C@@H]2CC[C@H]1O2` [Compound 135], the IC50 was > 33 µM.

For the compound `O=C(Nc1ccc(Cl)c(Cl)c1)C1=C(c2cccc(C(F)(F)F)n2)[C@@H]2CC[C@H]1O2` [Compound 136], the IC50 was 0.14 µM.

In the case of `Cn1nc(C(F)(F)F)cc1C1=C(C(=O)Nc2ccc(-c3ccccc3F)c(F)c2)C2CC[C@@H]1O2` [Compound 137], the IC50 is 8.2 µM.

With `O=C(Nc1ccc(Cl)c(Cl)c1)[C@H]1C2CC[C@H](O2)[C@H]1c1cnccn1` [Compound 140], the IC50 was > 33 µM.

Take `Cn1nc(C(F)(F)F)cc1C1=C(C(=O)Nc2ccc(Cl)c(Cl)c2)[C@H]2CC[C@@H]1O2` [Compound 141]: the IC50 was 17 µM.

Take `CCOC(=O)c1ccc(NC(=O)C2=C(c3cc(C(F)(F)F)nn3C)[C@@H]3CC[C@H]2O3)cc1` [Compound 142]: the IC50 is > 33 µM.

As for `O=C(Nc1ccc(Cl)c(Cl)c1)C1=C(c2cnccn2)[C@@H]2CC[C@H]1O2` [Compound 144], the IC50 is > 33 µM.

On to `CCOC(=O)c1ccc(NC(=O)[C@H]2[C@H](c3ccc(OC)cn3)[C@@H]3CC[C@H]2O3)cc1` [Compound 151], for which the IC50 was > 33 µM.

As for `O=C(Nc1ccc(Cl)c(Cl)c1)[C@@H]1[C@H](c2cccc(C(F)(F)F)n2)[C@@H]2CC[C@H]1O2` [Compound 155, (1R,2R,3R,4S)—N-(3,4-dichlorophenyl)-3-(6-(trifluoromethyl)pyridin-2-yl)-7-oxabicyclo[2.2.1]heptane-2-carboxamide], the IC50 is > 33 µM.

On to `O=C(Nc1cccc(C(F)(F)F)c1F)C1=C(c2cccc(C(F)(F)F)n2)C2CCC1O2` (centres unmarked) [Compound 157], for which the IC50 amounted to 25 µM.

For `O=C(Nc1ccc(-c2ccccc2)c(Cl)c1)C1=C(c2cccc(C(F)(F)F)n2)[C@@H]2CC[C@H]1O2` [Compound 160, (1R,4S)—N-(2-chloro-[1,1′-biphenyl]-4-yl)-3-(6-(trifluoromethyl)pyridin-2-yl)-7-oxabicyclo[2.2.1]hept-2-ene-2-carboxamide], the IC50 came out at 5.4 µM.

For `O=C(Nc1ccc(Cl)c(Cl)c1)[C@H]1[C@H](c2ccncc2)[C@@H]2CC[C@H]1O2` [Compound 162], the IC50 was > 33 µM.

In the case of `O=C(Nc1ccc(-c2ccccc2F)c(F)c1)C1=C(c2cnccn2)[C@@H]2CC[C@H]1O2` [Compound 164], the IC50 is > 33 µM.

Consider `Cc1ccnc([C@H]2[C@@H](C(=O)Nc3ccc(-c4ccccc4F)c(F)c3)[C@H]3CC[C@@H]2O3)c1` [Compound 166], for which the IC50 is > 33 µM.

Take `O=C(Nc1ccc(-c2ccccc2F)c(F)c1)C1=C(c2ccnc(N3CC[C@H](O)C3)c2)[C@@H]2CC[C@H]1O2` [Compound 167]: the IC50 is > 33 µM.
